Test results reported in patent US11253499B2, “Compounds” (priority 2017, dated 2022).
Where two headings read alike, the source gives them in different places.

Key:
[1] = system: M. tuberculosis H37Rv-GFP; type: cell-based, Mycobacterium tuberculosis; settings: read-out: EC50_H37Rv
[2] = system: Mycobacterium tuberculosis H37Rv in human macrophages THP-1
Description: Mycobacterium tuberculosis In Vitro H37Rv in Human Macrophaqes THP-1 Inhibition Assay (Intracellular Assay)
Procedure was carried out as described in Sorrentino, F. et al. (2016) Antimicrob. Agents Chemother. 60 (1), 640-645 (supplemental material), except that before THP-1 infected cells were seeded in 384 well plates, infected macrophages were filtered in the last step of wash steps with a 40 um cell strainer to remove cell clumps and obtain single cell suspension.
The compounds of the examples were tested essentially in accordance with the above-mentioned assay (without the presence of ethionamide).

[3] = potentiation of ethionamide, ETH 0.1 μg/ml, […], 5 days at 37° C., […]

SMILES | EC50 [1, 3] [nM] | IC50 [2] [nM] | EC50 [1] [nM]
O=C(CCC(F)(F)F)N1CC(N2CCC(F)(F)CC2)C1 [Example 35, 1-[3-(4,4-difluoro-1-piperidyl)azetidin-1-yl]-4,4,4-trifluoro-butan-1-one] | 500 to 1000 |  | 
O=C(CCC(F)(F)F)N1CC(c2ccc(C(F)(F)F)cc2)C1 [Example 16] |  | 250 to 500 | 50 to 250
O=C(CCC(F)(F)F)N1CC(c2ccc(F)cc2)C1 [Example 1, 4,4,4-trifluoro-1-[3-(4-fluorophenyl)azetidin-1-yl]butan-1-one] |  | < 50 | < 50
O=C(CCC(F)(F)F)N1CC(F)(c2ccc(F)cc2)C1 [Example 44, 4,4,4-trifluoro-1-(3-fluoro-3-(4-fluorophenyl)azetidin-1-yl)butan-1-one] | < 50 |  | 
COC1(c2ccc(F)cc2)CN(C(=O)CCC(F)(F)F)C1 [Example 41, 4,4,4-trifluoro-1-(3-(4-fluorophenyl)-3-methoxyazetidin-1-yl)butan-1-one] |  | < 50 | < 50
O=C(CCC(F)(F)F)N1CC(c2cccc(C(F)(F)F)c2)C1 [Example 2, 4,4,4-trifluoro-1-[3-[3-(trifluoromethyl)phenyl]azetidin-1-yl]butan-1-one] |  | < 50 | < 50
O=C(CCC(F)(F)F)N1CC(c2ccc(F)cn2)C1 [Example 9, 4,4,4-trifluoro-1-[3-(5-fluoro-2-pyridyl)azetidin-1-yl]butan-1-one] |  | 50 to 250 | 50 to 250
O=C(CCC(F)(F)F)N1CC(c2cccc(OC(F)(F)F)c2)C1 [Example 15, 4,4,4-trifluoro-1-[3-[3-(trifluoromethoxy)phenyl]azetidin-1-yl]butan-1-one] |  | < 50 | < 50
O=C(CCC(F)(F)F)N1CC(c2cncc(C(F)(F)F)c2)C1 [Example 24, 4,4,4-trifluoro-1-[3-[5-(trifluoromethyl)-3-pyridyl]azetidin-1-yl]butan-1-one] | 1000 to 10000 |  | 
O=C(CCC(F)(F)F)N1CC(c2cccc(F)c2)C1 [Example 29, 4,4,4-trifluoro-1-[3-(3-fluorophenyl)azetidin-1-yl]butan-1-one] |  | < 50 | < 50
O=C(CCC(F)(F)F)N1CC(C2CCCCC2)C1 [Example 6, 1-(3-cyclohexylazetidin-1-yl)-4,4,4-trifluoro-butan-1-one] | < 50 |  | 
COc1ccc(C2CN(C(=O)CCC(F)(F)F)C2)cn1 [Example 22, 4,4,4-trifluoro-1-[3-(6-methoxy-3-pyridyl)azetidin-1-yl]butan-1-one] | < 50 |  | 
O=C(CCC(F)(F)F)N1CC(N2CCCCC2)C1 [Example 39, 4,4,4-trifluoro-1-(3-(piperidin-1-yl)azetidin-1-yl)butan-1-one] | 1000 to 10000 |  | 
CC1(c2ccc(F)cc2)CN(C(=O)CCC(F)(F)F)C1 [Example 42, 4,4,4-trifluoro-1-(3-(4-fluorophenyl)-3-methylazetidin-1-yl)butan-1-one] |  | < 50 | < 50
O=C(CCC(F)(F)F)N1CC(c2ccc(F)c(F)c2)C1 [Example 27, 1-[3-(3,4-difluorophenyl)azetidin-1-yl]-4,4,4-trifluoro-butan-1-one] | < 50 |  | 
O=C(CCC(F)(F)F)N1CC(c2ccnc(Cl)c2)C1 [Example 32, 1-[3-(2-chloro-4-pyridyl)azetidin-1-yl]-4,4,4-trifluoro-butan-1-one] | 250 to 500 |  | 
O=C(CCC(F)(F)F)N1CC(c2ccc(Cl)cc2)C1 [Example 13, 1-[3-(4-chlorophenyl)azetidin-1-yl]-4,4,4-trifluoro-butan-1-one] |  | 50 to 250 | < 50
O=C(CCC(F)(F)F)N1CC(c2ncc(F)cc2F)C1 [Example 10, 1-[3-(3,5-difluoro-2-pyridyl)azetidin-1-yl]-4,4,4-trifluoro-butan-1-one] | < 50 |  | 
O=C(CCC(F)(F)F)N1CC(c2ccc(F)cc2Cl)C1 [Example 20, 1-[3-(2-chloro-4-fluoro-phenyl)azetidin-1-yl]-4,4,4-trifluoro-butan-1-one] |  | 50 to 250 | 50 to 250
O=C(CCC(F)(F)F)N1CC(C2CC2)C1 [Example 4, 1-(3-cyclopropylazetidin-1-yl)-4,4,4-trifluoro-butan-1-one] |  | 50 to 250 | 250 to 500
O=C(CCC(F)(F)F)N1CC(c2cncc(Cl)c2)C1 [Example 23, 1-[3-(5-chloro-3-pyridyl)azetidin-1-yl]-4,4,4-trifluoro-butan-1-one] |  | < 50 | 250 to 500
O=C(CCC(F)(F)F)N1CC(c2ccc(C(F)(F)F)cn2)C1 [Example 8, 4,4,4-trifluoro-1-[3-[5-(trifluoromethyl)-2-pyridyl]azetidin-1-yl]butan-1-one] |  | 1000 to 10000 | 250 to 500

SMILES | EC50 [1, 3] [nM] | IC50 [2] [nM] | EC50 [1] [nM]
O=C(CCCC(F)(F)F)N1CC(c2ccc(F)cc2)C1 [Example 3, 5,5,5-trifluoro-1-[3-(4-fluorophenyl)azetidin-1-yl]pentan-1-one] |  | 50 to 250 | < 50
O=C(CCC(F)(F)F)N1CC(c2cc(C(F)(F)F)ccn2)C1 [Example 7, 4,4,4-trifluoro-1-[3-[4-(trifluoromethyl)-2-pyridyl]azetidin-1-yl]butan-1-one] |  | 50 to 250 | 50 to 250
CC(C)Oc1ccc(C2CN(C(=O)CCC(F)(F)F)C2)cn1 [Example 36, 4,4,4-trifluoro-1-[3-(6-isopropoxy-3-pyridyl)azetidin-1-yl]butan-1-one] | 50 to 250 |  | 
O=C(CCC(F)(F)F)N1CC(c2ccncc2)C1 [Example 30, 4,4,4-trifluoro-1-[3-(4-pyridyl)azetidin-1-yl]butan-1-one] | 1000 to 10000 |  | 
Cc1cc(F)ccc1C1CN(C(=O)CCC(F)(F)F)C1 [Example 28, 4,4,4-trifluoro-1-[3-(4-fluoro-2-methyl-phenyl)azetidin-1-yl]butan-1-one] |  | 50 to 250 | 50 to 250
O=C(CCC(F)(F)F)N1CC(c2ccnc(C(F)(F)F)c2)C1 [Example 12, 4,4,4-trifluoro-1-[3-[2-(trifluoromethyl)-4-pyridyl]azetidin-1-yl]butan-1-one] |  | 50 to 250 | 250 to 500
O=C(CCC(F)(F)F)N1CC(c2cccnc2)C1 [Example 26, 4,4,4-trifluoro-1-[3-(3-pyridyl)azetidin-1-yl]butan-1-one] |  | 1000 to 10000 | 1000 to 10000
O=C(CCC(F)(F)F)N1CC(c2ccc(F)nc2)C1 [Example 33, 4,4,4-trifluoro-1-[3-(6-fluoro-3-pyridyl)azetidin-1-yl]butan-1-one] | 500 to 1000 |  | 
O=C(CCC(F)(F)F)N1CC(C2CCC(F)(F)CC2)C1 [Example 40, 1-(3-(4,4-difluorocyclohexyl)azetidin-1-yl)-4,4,4-trifluorobutan-1-one] | 50 to 250 |  | 
O=C(CCC(F)(F)F)N1CC(c2ccc(C(F)(F)F)nc2)C1 [Example 21, 4,4,4-trifluoro-1-[3-[6-(trifluoromethyl)-3-pyridyl]azetidin-1-yl]butan-1-one] |  | 250 to 500 | 1000 to 10000
O=C(CCC(F)(F)F)N1CC(c2ccc(F)cc2F)C1 [Example 18, 1-[3-(2,4-difluorophenyl)azetidin-1-yl]-4,4,4-trifluoro-butan-1-one] |  | < 50 | < 50
N#Cc1ccc(C2CN(C(=O)CCC(F)(F)F)C2)cc1 [Example 43, 4-(1-(4,4,4-trifluorobutanoyl)azetidin-3-yl)benzonitrile] | 1000 to 10000 |  | 
O=C(CCC(F)(F)F)N1CC(C2CCOCC2)C1 [Example 38, 4,4,4-trifluoro-1-(3-(tetrahydro-2H-pyran-4-yl)azetidin-1-yl)butan-1-one] |  | 50 to 250 | 250 to 500
O=C(CCC(F)(F)F)N1CC(c2cc(F)c(F)c(F)c2)C1 [Example 34, 4,4,4-trifluoro-1-[3-(3,4,5-trifluorophenyl)azetidin-1-yl]butan-1-one] |  | 50 to 250 | < 50
O=C(CCC(F)(F)F)N1CC(c2ccc(Cl)nc2)C1 [Example 19] |  | 50 to 250 | 250 to 500
O=C(CCC(F)(F)F)N1CC(c2ccc(OC(F)(F)F)cc2)C1 [Example 14, 4,4,4-trifluoro-1-[3-[4-(trifluoromethoxy)phenyl]azetidin-1-yl]butan-1-one] |  | 250 to 500 | < 50
O=C(CCC(F)(F)F)N1CC(c2ccnc(F)c2)C1 [Example 31, 4,4,4-trifluoro-1-[3-(2-fluoro-4-pyridyl)azetidin-1-yl]butan-1-one] | 500 to 1000 |  | 
O=C(CCC(F)(F)F)N1CC(c2cccc(Cl)c2)C1 [Example 17, 1-[3-(3-chlorophenyl)azetidin-1-yl]-4,4,4-trifluoro-butan-1-one] |  | < 50 | < 50
O=C(CCC(F)(F)F)N1CC(c2ccc(F)cc2C(F)(F)F)C1 [Example 25, 4,4,4-trifluoro-1-[3-[4-fluoro-2-(trifluoromethyl)phenyl]azetidin-1-yl]butan-1-one] |  | 50 to 250 | 50 to 250
O=C(CCC(F)(F)F)N1CC(c2cc(Cl)ccn2)C1 [Example 11, 1-[3-(4-chloro-2-pyridyl)azetidin-1-yl]-4,4,4-trifluoro-butan-1-one] |  | 50 to 250 | 50 to 250
O=C(CCC(F)(F)F)N1CC(c2ccc(OCC(F)(F)F)nc2)C1 [Example 37, 4,4,4-trifluoro-1-[3-[6-(2,2,2-trifluoroethoxy)-3-pyridyl]azetidin-1-yl]butan-1-one] | 250 to 500 |  | 
O=C(CCC(F)(F)F)N1CC(C2CCCC2)C1 [Example 5, 1-(3-cyclopentylazetidin-1-yl)-4,4,4-trifluoro-butan-1-one] | < 50 |  | 
